Patent US8980848B2, “Flavonoid dimers and their use” (The Hong Kong Polytechnic University, priority 2010, dated 2015)
Read-outs that look alike come from different tables or passages of the source.

Experiments:
[1] = tested on: LdAG83 promastigotes (wild type); assay: In vitro anti-promastigote activity, LdAG83; format: cell-based, Leishmania donovani; conditions: read-out: Anti-promastigotes activity (IC50, μM) LdAG83
Experimental: (§1) Cell Lines and Cell Culture. Promastigotes of Leishmania donovani (wild type LdAG83, pentamidine-resistant LdAG83-PentR50, and SSG-resistant Ld39) and Leishmania major [MHOM/IL/67/JERICHO II (Lm50122), from ATCC] were used in this study.
(§2) In Vitro Anti-Promastigote Activity. The viability of promastigotes was determined by the Cell Titer 96° Aqueous Assay (Promega) that employs a tetrazolium compound (MTS, 2-(4,5-Dimethylthiazol-2-yl-)-5-[3-(carboxymethoxy)phenyl]-2-(4-sulfophenyl)-2H-tetrazolium) and electron coupling reagent, phenazine methosulfate (PMS).^7 Promastigotes were seeded into 96-well flat bottom microtiter plate at 1×10^5 cells per well in a final volume of 100 μL medium and incubated with a series concentration of synthetic flavonoid dimers or known antileishmanials. The parasites were incubated at 27° C. for 72 hrs. Fresh solution of 2 mg/mL MTS and 0.92 mg/mL PMS were prepared in a ratio of 20:1 (MTS:PMS). After 72 hrs incubation, 10 μL of MTS:PMS mixture was added into each well of microtiter plate. The plate was then incubated at 27° C. for 4 hrs for color development. After 4 hrs incubation, the OD values were determined at 490 nm using automatic microtiter plate reader (Bio-Rad).

[2] = tested on: Ld39 promastigotes (SSG-resistant); assay: In vitro anti-promastigote activity, Ld39; format: cell-based, Leishmania donovani; conditions: read-out: Anti-promastigotes activity (IC50, μM) Ld39
Experimental: as §1, §2

[3] = tested on: LdAG83PentR50 promastigotes (pentamidine-resistant); assay: microbe, parasite or virus in culture; format: cell-based, Leishmania donovani; conditions: 3 days at 27° C., MTS; read-out: Anti-promastigotes activity (IC50, μM) LdAG83PentR50
Experimental: as §1
No pentamidine or sodium stibogluconate was added to the L. donovani wild type (LdAG83) and L. major wild type (Lm50122). The mouse macrophage cell line, Raw264.7, was used for the determination of the relative toxicity of the compounds of the invention. […] They were maintained at 37° C. in a humidified atmosphere with 5% CO2. The cells were split constantly after a confluent monolayer has been formed. To split cells, the plate was washed briefly with PBS, treated with 0.05% trypsin-EDTA and harvested by centrifugation.
as §2

Lm50122 promastigotes = assay: In vitro anti-promastigote activity, Lm50122; format: cell-based, Leishmania major; conditions: read-out: Anti-promastigotes activity (IC50, μM) Lm50122
Experimental: as §1, §2

Raw264.7 cells = assay: Cytotoxicity, mouse macrophage Raw264.7; format: cell-based
Experimental: (§3) (a) Mouse Macrophage Raw 264.7 and Primary Mouse PEM Cells. The cytotoxicity assay of reference antileishmanial compounds and the compounds of this invention was performed against mouse macrophage cell line, Raw 264.7 and primary mouse PEM cells in order to calculate the therapeutic index (IC50 value for cytotoxicity of the compounds divided by IC50 value for antileishmanial activity of the compounds). The cells were grown in supplemented DMEM media in an atmosphere of 95% air with 5% CO2 at 37° C. In brief, Raw264.7 cells and PEM cells were seeded into 96-well flat bottom microtiter plate at 1×10^4cells and 2×10^4 cells per well in a final volume of 100 μL media, respectively. A graded dose of flavonoid dimers or antileishmanials was added into wells. The plate was incubated at 37° C. for 72 hrs at the atmosphere 5% CO2 in the air. The % of survivors was determined.

PEM cells = assay: Cytotoxicity, primary mouse peritoneal elicited macrophage (PEM); format: cell-based
Experimental: as §3

Ld39 amastigotes = assay: In vitro anti-amastigote activity, Ld39 amastigotes in mouse PEM
Experimental: Peritoneal elicited macrophages (PEM) from mouse were obtained as previously described. A round cover slip (12 mm in diameter) was placed into each well of 24-well culture plate. Mouse macrophages were resuspended in supplemented DMEM media containing 10% heat inactivated fetal bovine serum (v/v), 100 U/mL penicillin and 100 μg/mL streptomycin and seeded into each well at a cell density of 1×10^5 cells per 500 μL. Macrophages were allowed to attach overnight and the non-adherent cells were removed by gentle washing twice with unsupplemented DMEM media. […] Non-internalized promastigotes were removed by washing with unsupplemented DMEM media for two times. Infected macrophages were further incubated in 500 μL supplemented DMEM media in the presence or absence of flavonoid dimers or known antileishmanials for 72 hrs at 37° C. After incubation, the cover slips were stained with Giemsa and the amastigotes inside each macrophage (100 macrophages per treatment) were counted under microscope. The percentage of macrophages infected and number of amastigotes per 100 macrophages was enumerated.
The % of infected macrophage and the number of amastigotes per 100 macrophages were counted by staining with Giemsa.

[4] = Tumor cell line cytotoxicity of flavonoid dimers, LCC6MDR; format: cell-based, human; conditions: human, LCC6MDR cells, IC50 of compound alone
How it was run: (§4)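 LCC6, LCC6MDR and L929 cells seeded at 1×10^4 cells/well and exposed to graded doses of flavonoid dimers. Incubation 72 hrs at 37° C., 5% CO2. Read-out: % survivors.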

[5] = Tumor cell line cytotoxicity of flavonoid dimers, LCC6; format: cell-based, human; conditions: human, LCC6 cells, IC50 of compound alone
How it was run: as §4

[6] = Cytotoxicity over LCC6, LCC6MDR and L929 cell lines; format: cell-based, human, mouse; conditions: human, cancer lines LCC6, LCC6MDR and/or L929
Experimental: (b) Tumor Cell Line Cytotoxicity. The tumor cytotoxicity assays of flavonoid dimers were performed against LCC6, LCC6MDR and L929 cell lines. The cells were grown in supplemented DMEM media in an atmosphere of 95% air and 5% CO2 at 37° C. In brief, LCC6, LCC6MDR and L929 cells were seeded into 96-well flat bottom microtiter plate at 1×10^4 cells per well in a final volume of 100 μL media, respectively. A graded dose of flavonoid dimers was added into wells. The plate was incubated at 37° C. for 72 hrs at the atmosphere 5% CO2 in the air. The % of survivors was determined.

Pgp (LCC6MDR cells) = Pgp (LCC6MDR cells) (Homo sapiens, UniProt P08183); assay: Cell proliferation assay: Pgp-modulating activity, reversal of anticancer drug resistance in LCC6MDR cells; conditions: for RF (Relative Fold), cpd at 0.5 μM: RF = (IC50 without modulator)/(IC50 with 0.5 μM modulator); for RF (Relative Fold), cpd at 0.5 μM / RF (Relative Fold), cpd at 1 μM: paclitaxel; for RF (Relative Fold), cpd at 0.5 μM / EC50 / RF (Relative Fold), cpd at 1 μM: LCC6MDR; for EC50: EC50 of compounds for reversing anticancer drug resistance (nM); for Therapeutic index: IC50 of compounds for L929/EC50 of compounds for lowering paclitaxel drug resistance; for RF (Relative Fold), cpd at 1 μM: RF = (IC50 without modulator)/(IC50 with 1.0 μM modulator)
Chain of Pgp (LCC6MDR cells) (P08183 whole entry): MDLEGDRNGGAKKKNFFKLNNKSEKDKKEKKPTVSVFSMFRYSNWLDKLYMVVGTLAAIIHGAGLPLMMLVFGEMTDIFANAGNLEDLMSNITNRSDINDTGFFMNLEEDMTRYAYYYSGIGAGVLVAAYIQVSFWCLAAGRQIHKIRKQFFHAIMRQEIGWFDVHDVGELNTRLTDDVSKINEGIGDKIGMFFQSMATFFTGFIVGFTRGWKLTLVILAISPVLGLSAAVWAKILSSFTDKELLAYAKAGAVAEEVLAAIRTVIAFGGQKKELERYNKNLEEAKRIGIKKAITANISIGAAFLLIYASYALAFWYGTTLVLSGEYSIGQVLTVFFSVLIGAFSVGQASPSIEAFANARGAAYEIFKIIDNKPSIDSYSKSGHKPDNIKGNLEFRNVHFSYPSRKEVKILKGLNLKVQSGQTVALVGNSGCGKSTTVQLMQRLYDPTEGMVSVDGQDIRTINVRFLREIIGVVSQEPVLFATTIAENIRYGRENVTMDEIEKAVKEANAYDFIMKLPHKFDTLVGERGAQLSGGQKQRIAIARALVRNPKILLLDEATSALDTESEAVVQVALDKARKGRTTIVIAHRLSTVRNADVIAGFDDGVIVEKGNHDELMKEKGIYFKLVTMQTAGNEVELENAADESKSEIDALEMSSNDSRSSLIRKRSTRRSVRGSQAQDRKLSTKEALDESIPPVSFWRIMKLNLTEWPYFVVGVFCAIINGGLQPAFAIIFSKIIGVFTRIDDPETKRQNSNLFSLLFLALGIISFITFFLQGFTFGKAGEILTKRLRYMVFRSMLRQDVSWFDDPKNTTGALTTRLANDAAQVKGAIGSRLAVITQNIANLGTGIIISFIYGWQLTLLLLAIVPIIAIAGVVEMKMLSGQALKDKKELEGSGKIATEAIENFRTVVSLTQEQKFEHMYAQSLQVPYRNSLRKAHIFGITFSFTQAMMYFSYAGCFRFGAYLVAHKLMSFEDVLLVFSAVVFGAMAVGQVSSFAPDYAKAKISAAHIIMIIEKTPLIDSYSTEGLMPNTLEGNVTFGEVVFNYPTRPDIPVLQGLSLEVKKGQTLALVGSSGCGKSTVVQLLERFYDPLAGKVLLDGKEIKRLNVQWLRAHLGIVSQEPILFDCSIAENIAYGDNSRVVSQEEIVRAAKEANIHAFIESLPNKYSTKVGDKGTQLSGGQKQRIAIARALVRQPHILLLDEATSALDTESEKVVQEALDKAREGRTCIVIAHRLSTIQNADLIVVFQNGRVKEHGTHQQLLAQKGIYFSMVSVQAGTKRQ
Experimental: Cell Proliferation Assay. 6,000 cells of LCC6 or LCC6MDR and anticancer drugs (paclitaxel, vinblastine, vincristine, doxorubicin and mitoxantrone) were mixed with or without modulators to a final volume of 200 μL in each well of 96-well plates. […] The plates were then incubated for 5 days at 37° C. […] IC50 values were calculated from the dose-response curves of MTS assays (Prism 4.0).

[7] = Cytotoxicity of flavonoid dimers, L929 mouse fibroblast; format: cell-based; conditions: mouse, L929 fibroblast cells, IC50 of compound alone, 72 hrs, mouse fibroblast
How it was run: as §4

[8] = cytotoxicity, primary mouse macrophage, 72 hrs
[9] = mouse, LCC6MDR and L929 cell lines
[10] = Mus musculus, Macrophage, Table 7, cytotoxicity
[11] = Leishmania donovani, in Mus musculus, 72 h, read-out: Ld39 (IC50, mM)

melting point	SMILES	IC50 at 72 h [4]	IC50 at 72 h [5]	RF (Relative Fold), cpd at 0.5 μM (Pgp (LCC6MDR cells))	IC50 at 72 h [7]	IC50 at 72 h [6, 9]	further results
–	C[C@@H]1[C@H](O)[C@@H](C)/C=C/C=C/C=C/C=C/C=C/C=C/C=C/[C@H](O[C@@H]2O[C@H](C)[C@@H](O)[C@H](N)[C@@H]2O)C[C@@H]2O[C@](O)(C[C@@H](O)C[C@@H](O)[C@H](O)CC[C@@H](O)C[C@@H](O)CC(=O)O[C@H]1C)C[C@H](O)[C@H]2C(=O)O [Amphotericin B, amphotericin B, reference compound]	–	–	–	–	–	IC50 ([1]; 3 days at 27° C., MTS): 0.09 ± 0.02 µM; IC50 ([2]; 3 days at 27° C., MTS): 0.095 ± 0.02 µM; IC50 [3]: 0.051 µM; IC50 (Lm50122 promastigotes; 3 days at 27° C., MTS): 0.34 ± 0.06 µM; IC50 (Raw264.7 cells; 72 hrs): 12 µM; IC50 (PEM cells; [8]): 7.4 µM; IC50 (Ld39 amastigotes; read-out: IC50 against Ld39 amastigotes): 0.062 µM
–	COc1cccc2oc(-c3ccc(OCCOCCN(CCOCCOc4ccc(-c5cc(=O)c6c(OC)cccc6o5)cc4)C(=O)OC(C)(C)C)cc3)cc(=O)c12 [Compound 16d, 1,13-Bis[4′-((5-methoxy)-4H-chromen-4-on-2-yl)phenyl]-7-(tert-butyloxycarbonyl)-1,4,10,13-tetraoxa-7-azamidecane]	5.4 ± 0.5 µM	4.6 ± 0.2 µM	(14.9)	–	–	IC50 at 72 h [6]: < 8 µM
–	COC(=O)c1ccc(CN(CCOCCOc2ccc(-c3cc(=O)c4ccccc4o3)cc2)CCOCCOc2ccc(-c3cc(=O)c4ccccc4o3)cc2)cc1 [Compound 20, 1,13-Bis[4′-(4H-chromen-4-on-2-yl)phenyl]-N-(4-methoxycarbonylbenzyl)-1,4,10,13-tetraoxa-7-azamidecane]	64.8 ± 14.1 µM	33.3 ± 10.8 µM	(2.1)	11.4 ± 4.4 µM	–	IC50 ([1]; Leishmania donovani, 72 h): > 100 µM; IC50 ([2]; Leishmania donovani, 72 h): > 100 µM; IC50 (Lm50122 promastigotes; Leishmania major, 72 h): > 100 µM; IC50 (Raw264.7 cells; Mus musculus, RAW264.7, 72 h): 45.7 ± 19.1 µM
–	O=C1c2ccccc2C(=O)N1CCN(CCOCCOc1ccc(-c2cc(=O)c3ccccc3o2)cc1)CCOCCOc1ccc(-c2cc(=O)c3ccccc3o2)cc1 [Compound 23c, 1,13-Bis[4′-(4H-chromen-4-on-2-yl)phenyl]-7-[2-(1,3-dioxo-1,3-dihydro-2H-isoindol-2-yl)ethyl]-1,4,10,13-tetraoxa-7-azamidecane]	4.9 ± 0.1 µM	8.6 ± 3.4 µM	(9.6)	17 ± 4.3 µM	4.9 to 8.6 µM	–
82 to 84 °C	O=c1cc(-c2ccc(OCCOCCN(CCOCCOc3ccc(-c4cc(=O)c5ccccc5o4)cc3)Cc3ccccc3F)cc2)oc2ccccc12 [Compound 36, 1,13-Bis[4′-(4H-chromen-4-on-2-yl)phenyl]-7-(2-fluorobenzyl)-1,4,10,13-tetraoxa-7-azamidecane]	> 100 µM	> 100 µM	–	> 100 µM	> 100 µM	EC50 (Pgp (LCC6MDR cells); Paclitaxel): 179 ± 44 nM; Therapeutic index (Pgp (LCC6MDR cells)): >558.7
91 to 93 °C	O=c1cc(-c2ccc(OCCOCCN(CCOCCOc3ccc(-c4cc(=O)c5ccccc5o4)cc3)Cc3cccc(F)c3)cc2)oc2ccccc12 [Compound 37, 1,13-Bis[4′-(4H-chromen-4-on-2-yl)phenyl]-7-(3-fluorobenzyl)-1,4,10,13-tetraoxa-7-azamidecane]	> 100 µM	> 100 µM	–	> 87 µM	> 100 µM	EC50 (Pgp (LCC6MDR cells); Paclitaxel): 258 ± 103 nM; Therapeutic index (Pgp (LCC6MDR cells)): >337.2
–	O=c1cc(-c2ccc(OCCOCCN(CCOCCOc3ccc(-c4cc(=O)c5ccccc5o4)cc3)Cc3cc(F)c(F)c(F)c3)cc2)oc2ccccc12 [Compound 39, 1,13-Bis[4′-(4H-chromen-4-on-2-yl)phenyl]-7-(3,4,5-trifluorobenzyl)-1,4,10,13-tetraoxa-7-azamidecane]	> 100 µM	> 75 µM	–	> 100 µM	> 100 µM	–
106 to 107 °C	O=c1cc(-c2ccc(OCCOCCN(CCOCCOc3ccc(-c4cc(=O)c5ccccc5o4)cc3)Cc3ccc(-c4ccccc4)cc3)cc2)oc2ccccc12 [Compound 57, 1,13-Bis[4′-(4H-chromen-4-on-2-yl)phenyl]-7-(4-phenylbenzyl)-1,4,10,13-tetraoxa-7-azamidecane]	> 62 µM	> 99 µM	(102.1)	> 69 µM	–	EC50 (Pgp (LCC6MDR cells); Daunorubicin): 76 ± 14 nM; EC50 (Pgp (LCC6MDR cells); Doxorubicin): 94 ± 1 nM; EC50 (Pgp (LCC6MDR cells); Mitoxantrone): 65 ± 19 nM; EC50 (Pgp (LCC6MDR cells); Paclitaxel): 72 ± 21 nM; EC50 (Pgp (LCC6MDR cells); Vinblasinte, vinblastine): 38 ± 10 nM; EC50 (Pgp (LCC6MDR cells); Vincristine): 83 ± 12 nM; Therapeutic index (Pgp (LCC6MDR cells)): >958.3; RF (Relative Fold), cpd at 1 μM (Pgp (LCC6MDR cells)): (117.8)
96 to 97 °C	O=c1cc(-c2ccc(OCCOCCN(CCOCCOc3ccc(-c4cc(=O)c5ccccc5o4)cc3)Cc3cccc4ccccc34)cc2)oc2ccccc12 [Compound 59, 1,13-Bis[4′-(4H-chromen-4-on-2-yl)phenyl]-7-(1-naphthalenylmethyl)-1,4,10,13-tetraoxa-7-azamidecane]	> 100 µM	> 100 µM	(2.2)	> 100 µM	–	RF (Relative Fold), cpd at 1 μM (Pgp (LCC6MDR cells)): (80.6)
71 to 72 °C	O=C(c1ccccc1)c1ccc(CN(CCOCCOc2ccc(-c3cc(=O)c4ccccc4o3)cc2)CCOCCOc2ccc(-c3cc(=O)c4ccccc4o3)cc2)cc1 [Compound 61, 1,13-Bis[4′-(4H-chromen-4-on-2-yl)phenyl]-7-(4-benzoylbenzyl)-1,4,10,13-tetraoxa-7-azamidecane]	> 100 µM	> 91 µM	(1.9)	> 100 µM	–	RF (Relative Fold), cpd at 1 μM (Pgp (LCC6MDR cells)): (30.0)
–	O=c1cc(-c2ccc(O)c(O)c2)oc2cc(O)cc(O)c12 [Luteolin, luteolin]	–	–	–	–	–	IC50 (PEM cells; [10]): 77.7 ± 7.7 µM; IC50 (PEM cells; [8]): 77.7 ± 7.7 µM; IC50 (Ld39 amastigotes; [11]): 7.7 ± 3.6 µM
–	O=c1c(O)c(-c2ccc(O)c(O)c2)oc2cc(O)cc(O)c12 [Quercetin, quercetin]	–	–	–	–	–	IC50 (PEM cells; [10]): > 100 µM; IC50 (PEM cells; [8]): > 100 µM; IC50 (Ld39 amastigotes; [11]): 6 ± 1.1 µM
